In brackets after ≈: the same amount, converted by molar mass.

The nature of this data set: Solubility assessment of (R)-Trolox in 12 solvents at 40° C. It is filed as physicochemical. To be noted: for solubility: organic solvent or mixture, thermodynamic from solid. The procedure: (R)-Trolox (97.89% ee, chemical purity>99.99% AUC) (100 mg) was weighed out in 12 different vials. 12 different solvents were added (one volume at a time) to the different vials and the mixture was maintained at 40° C. The volume of each solvent required to dissolve 100 mg of (R)-Trolox was recorded and the solubility was subsequently calculated.

A word on the solubility: it is the dissolved amount per volume that the medium holds. With `Cc1c(C)c2c(c(C)c1O)CCC(C)(C(=O)O)O2` (racemic) [(R)-Trolox, 6-hydroxy-2,5,7,8-tetramethylchroman-2-carboxylic acid], the “Solubility (in words)” value (all solvents except for pure water) is “highly soluble”. Moreover, the solubility (solvent 2-MeTHF) was 524 mg/mL (≈ 2090 mM); the solubility (solvent 5% water/ACN) stood at 459 mg/mL (≈ 1830 mM); the solubility (solvent 5% water/EtOH) stood at 854 mg/mL (≈ 3410 mM); the solubility (solvent 5% water/IPA) is 978 mg/mL (≈ 3910 mM); the solubility (solvent 5% water/MeOH) was found to be 1040 mg/mL (≈ 4150 mM); the solubility (solvent ACN) was 195 mg/mL (≈ 779 mM). For the same compound, the solubility (solvent EtOAc) was 209 mg/mL (≈ 835 mM); the solubility (solvent EtOH) worked out at 494 mg/mL (≈ 1970 mM); the solubility (solvent IPA) worked out at 523 mg/mL (≈ 2090 mM); the solubility (solvent IPAc) came to 252 mg/mL (≈ 1010 mM); the solubility (solvent MeOH) is 1000 mg/mL (≈ 4010 mM). Moreover, for the setting “solvent water”, the “Solubility at 40° C.” value is recorded as “not soluble”.

The record behind these values is patent publication US20180002247A1, “METHODS FOR CHIRAL RESOLUTION OF TROLOX” (BIOELECTRON TECHNOLOGY CORPORATION, priority 2014, published 2018).
